These compounds were tested against T1, SerB2 (M. tuberculosis phosphoserine phosphatase) (Mycobacterium tuberculosis, UniProt O53289) (assay: malachite green phosphatase assay).
Assay type: biochemical
From the text: malachite green phosphatase assay on SerB2 (M. tuberculosis phosphoserine phosphatase)

T1 sequence (O53289 whole entry): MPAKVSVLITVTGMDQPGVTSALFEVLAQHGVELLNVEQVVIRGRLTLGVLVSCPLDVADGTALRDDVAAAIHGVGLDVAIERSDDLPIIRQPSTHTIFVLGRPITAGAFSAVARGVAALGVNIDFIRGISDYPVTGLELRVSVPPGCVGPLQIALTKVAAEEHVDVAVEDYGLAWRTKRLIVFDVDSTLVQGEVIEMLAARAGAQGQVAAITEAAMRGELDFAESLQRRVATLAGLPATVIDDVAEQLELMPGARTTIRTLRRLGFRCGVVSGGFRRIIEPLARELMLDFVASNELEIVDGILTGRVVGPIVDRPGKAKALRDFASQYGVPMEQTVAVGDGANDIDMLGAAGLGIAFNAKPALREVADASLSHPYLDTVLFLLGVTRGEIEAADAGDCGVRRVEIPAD

Compound	inhibition at 10 µM [%]
Cc1c2c(cc[n+]1CCC(C)C)c1ccc(OCC3CCCCC3)cc1n2CC1CCCCC1 [compound 90, 90]	16.5 ± 13.3
Cc1c2c(cc[n+]1CCc1ccccc1)c1ccc(OCc3ccccc3)cc1n2Cc1ccccc1 [compound 94, 94]	15.6 ± 4.3

Each compound was assayed against T1, SerB2 (M. tuberculosis phosphoserine phosphatase) (assay: malachite green phosphatase assay, slope replot fitted to Hill-type model).
Assay type: biochemical
From the text: malachite green phosphatase assay, slope replot fitted to Hill-type model on SerB2 (M. tuberculosis phosphoserine phosphatase)

Compound	Ki [µM]
Cc1c2c(cc[n+]1CCC(C)C)c1ccc(OCCC(C)C)cc1n2CCC(C)C [compound 88, 88]	18.3 ± 2.3
Cc1c2c(cc[n+]1CCc1ccccc1)c1ccc(OCC3CCCCC3)cc1n2CC1CCCCC1 [compound 91, 91]	3.27 ± 0.12
Cc1c2c(cc[n+]1Cc1ccc3ccccc3c1)c1ccc(OCc3ccccc3)cc1n2Cc1ccccc1 [compound 95, 95]	6.66 ± 0.39
Cc1c2c(cc[n+]1CCC1CCCCC1)c1ccc(OCC3CCCCC3)cc1n2CC1CCCCC1 [compound 124, 7-(cyclohexylmethoxy)-9-(cyclohexylmethyl)-1-methyl-2-(2-cyclohexylethyl)-β -carboline-2-ium bromide]	1.75 ± 0.11
